According to patent US10041937B2, “Macrophage identification agent, and identification method, sorting method, evaluation method, screening method and kit using the macrophage identifier agent” (CANON KABUSHIKI KAISHA, priority 2013, dated 2018):

Tests used:
[1] = system: M1 macrophages and M2 macrophages differentiated from THP-1 cells; assay: Identification of macrophage subtypes differentiated from human cell line THP-1; format: cell-based
[2] = system: mixture of the M1 macrophages and the M2 macrophages; assay: Sorting of subtypes from a mixture of M1 and M2 macrophages with an FACS apparatus; format: cell-based, mouse; details: compound 1 μM

Structure (SMILES): CCOC(=O)CCN1C(=O)/C(=C\c2ccc3c(c2)C2CCCC2N3CC)SC1=S (stereo not shown) [compound (1)]
- Resolution ratio R ([1]; M1 vs M2 macrophages differentiated from THP-1 cells, channel listed per compound (Table 6)): 0.409
- Evaluation of macrophage subtype identification ([1]; M1 vs M2 macrophages differentiated from THP-1 cells, class based on resolution R (Table 6)): B (the compound is good in the subtype identification (namely, the resolution R is 0.15 or more and less than 0.5))
- Peak position of M1 macrophage ([1]; THP-1-derived M1 macrophages, fluorescence intensity peak by flow cytometry in the channel listed per compound (Table 6)): 58.1
- Peak position of M2 macrophage ([1]; THP-1-derived M2 macrophages, fluorescence intensity peak by flow cytometry in the channel listed per compound (Table 6)): 33.4
- Selectivity ([1]; subtype strongly stained, THP-1-derived macrophages (Table 6)): M1
- sorting of identified M1 and M2 macrophages ([2]; FACS apparatus): could be each sorted with an FACS apparatus
- subtype more strongly stained ([2]; mixed M1 and M2 macrophages): stain the M1 macrophages more strongly than the M2 macrophages
